Measurements reported in ChEMBL document CHEMBL1201862, “PubChem BioAssay data set” (2004).
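Results reflect a 48-hour exposure of cells in 96-well plates to compound at five concentrations. Here, GI50 denotes the concentration required for 50% inhibition of growth.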 Active and inactive are the calls of the source. Rule as the data show it: active = GI50 up to about 1.1 µM and inactive = higher.

Experiments:
Assay in all cases: NCI-60 cell line screen, 48 h
TK-10 = system: TK-10
LOX IMVI = system: LOX IMVI
CAKI-1 = system: CAKI-1
OVCAR-5 = system: OVCAR-5
HOP-62 = system: HOP-62
CCRF-CEM = system: CCRF-CEM
SN12C = system: SN12C
EKVX = system: EKVX
M19-MEL = system: M19-MEL
SF-295 = system: SF-295
HCC 2998 = system: HCC 2998
786-0 = system: 786-0
SK-OV-3 = system: SK-OV-3
SW-620 = system: SW-620
SF-539 = system: SF-539
KM12 = system: KM12
NCI-H460 = system: NCI-H460
DMS-273 = system: DMS-273
HT-29 = system: HT-29
HCT-15 = system: HCT-15
UO-31 = system: UO-31
SNB-19 = system: SNB-19
SNB-78 = system: SNB-78
OVCAR-4 = system: OVCAR-4
NCI-H226 = system: NCI-H226
OVCAR-8 = system: OVCAR-8
NCI-H23 = system: NCI-H23
SK-MEL-28 = system: SK-MEL-28
SF-268 = system: SF-268
K562 = system: K562
HCT-116 = system: HCT-116
A549 = system: A549
UACC-257 = system: UACC-257
KM-20L2 = system: KM-20L2
SK-MEL-2 = system: SK-MEL-2
RPMI-8226 = system: RPMI-8226
MOLT-4 = system: MOLT-4
DMS-114 = system: DMS-114
XF498 = system: XF498
U-251 = system: U-251
NCI-H522 = system: NCI-H522
OVCAR-3 = system: OVCAR-3
M14 = system: M14
SR = system: SR
HL-60 = system: HL-60
ACHN = system: ACHN
Malme-3M = system: Malme-3M
COLO 205 = system: COLO 205

Measured: GI50

CN(C)CCCNc1ccnc2c([N+](=O)[O-])cccc12
inactive: TK-10 > 100 µM | LOX IMVI 19.5 µM | CAKI-1 35.3 µM | OVCAR-5 > 10 µM | HOP-62 29.3 µM | CCRF-CEM 34.3 µM | SN12C 14.6 µM | EKVX 10.5 µM | M19-MEL 2.44 µM | SF-295 20.9 µM | HCC 2998 13.6 µM | 786-0 22.2 µM | SK-OV-3 3.85 µM | SW-620 15.2 µM | SF-539 20.7 µM | KM12 24.9 µM | NCI-H460 15.5 µM | DMS-273 14.7 µM | HT-29 3.56 µM | UO-31 38.7 µM | SNB-19 23.4 µM | SNB-78 31.2 µM | OVCAR-4 15.2 µM | NCI-H226 > 100 µM | OVCAR-8 20.7 µM | NCI-H23 14.6 µM | SK-MEL-28 95.7 µM | SF-268 19.1 µM | K562 > 10 µM | HCT-116 15.3 µM | A549 28.2 µM | UACC-257 15.5 µM | KM-20L2 4.36 µM | SK-MEL-2 > 10 µM | RPMI-8226 21.6 µM | MOLT-4 21.8 µM | DMS-114 2.48 µM | XF498 14.8 µM | U-251 30.2 µM | NCI-H522 17.1 µM | OVCAR-3 3.56 µM | M14 29.2 µM | SR 27.9 µM | HL-60 > 10 µM | ACHN 31.1 µM | Malme-3M 2.52 µM | COLO 205 2.37 µM
22.2 µM: HCT-15
